Data on 16 compounds can be found in US12528767B2, “HDAC6 inhibitors and uses thereof” (Eikonizo Therapeutics, Inc., priority 2019, dated 2026).

In general, IC50 refers to the concentration that gives 50% inhibition.

Structures are written as SMILES. Where two headings read alike, the source gives them in different places.

In test [1] the target is T1, Full length Human HDAC6 (Homo sapiens, UniProt Q9UBN7).
T1 sequence (Q9UBN7 1-1215): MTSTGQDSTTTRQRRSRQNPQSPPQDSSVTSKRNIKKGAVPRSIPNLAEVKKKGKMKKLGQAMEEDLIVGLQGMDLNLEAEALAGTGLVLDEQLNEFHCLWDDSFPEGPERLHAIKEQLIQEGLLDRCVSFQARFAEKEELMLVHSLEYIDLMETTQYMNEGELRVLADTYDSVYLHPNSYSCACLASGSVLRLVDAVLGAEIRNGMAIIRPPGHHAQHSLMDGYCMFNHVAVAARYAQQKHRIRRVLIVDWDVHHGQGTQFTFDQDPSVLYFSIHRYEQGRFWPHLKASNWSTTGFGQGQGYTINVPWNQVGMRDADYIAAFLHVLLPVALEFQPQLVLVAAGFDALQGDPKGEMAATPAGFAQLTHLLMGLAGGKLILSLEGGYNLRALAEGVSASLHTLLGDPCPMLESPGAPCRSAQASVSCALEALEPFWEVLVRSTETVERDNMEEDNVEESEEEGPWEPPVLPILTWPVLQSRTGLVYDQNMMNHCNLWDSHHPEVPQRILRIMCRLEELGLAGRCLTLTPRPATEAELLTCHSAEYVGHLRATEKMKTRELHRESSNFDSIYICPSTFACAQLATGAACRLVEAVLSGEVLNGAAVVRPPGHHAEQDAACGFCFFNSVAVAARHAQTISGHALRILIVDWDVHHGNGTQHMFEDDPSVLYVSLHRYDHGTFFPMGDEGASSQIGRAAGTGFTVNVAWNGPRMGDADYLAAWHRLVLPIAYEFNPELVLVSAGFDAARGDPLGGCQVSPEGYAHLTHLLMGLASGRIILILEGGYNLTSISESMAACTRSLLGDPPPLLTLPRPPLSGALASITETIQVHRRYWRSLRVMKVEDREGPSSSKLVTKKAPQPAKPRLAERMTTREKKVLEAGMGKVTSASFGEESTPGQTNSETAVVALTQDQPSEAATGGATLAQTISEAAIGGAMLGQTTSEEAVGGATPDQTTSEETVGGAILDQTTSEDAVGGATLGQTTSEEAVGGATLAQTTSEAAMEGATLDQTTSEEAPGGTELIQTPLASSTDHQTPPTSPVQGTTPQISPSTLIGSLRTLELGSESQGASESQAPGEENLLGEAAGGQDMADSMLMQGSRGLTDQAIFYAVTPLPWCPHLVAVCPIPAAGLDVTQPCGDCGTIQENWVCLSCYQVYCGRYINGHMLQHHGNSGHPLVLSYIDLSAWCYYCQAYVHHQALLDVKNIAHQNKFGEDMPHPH
The conditions noted are these: for Selectivity (6 v 8) (fold): ratio of HDAC8 IC50/HDAC6 IC50.

Test [2] addresses T2, Full length Human HDAC8 (Homo sapiens, UniProt Q9BY41).
T2 sequence (Q9BY41 1-377): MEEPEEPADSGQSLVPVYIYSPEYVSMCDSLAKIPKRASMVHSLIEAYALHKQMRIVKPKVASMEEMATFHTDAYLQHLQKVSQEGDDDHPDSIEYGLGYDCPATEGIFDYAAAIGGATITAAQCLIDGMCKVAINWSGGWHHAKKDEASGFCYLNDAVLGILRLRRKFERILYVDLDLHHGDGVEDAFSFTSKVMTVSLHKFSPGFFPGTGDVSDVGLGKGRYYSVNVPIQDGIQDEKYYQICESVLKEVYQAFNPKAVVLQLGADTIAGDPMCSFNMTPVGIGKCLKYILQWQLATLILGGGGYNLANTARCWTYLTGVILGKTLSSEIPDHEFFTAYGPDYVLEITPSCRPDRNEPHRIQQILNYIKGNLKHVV

On to `CN1Cc2cc(C(=O)NO)ccc2[C@@H]2CCCN21` (single isomer, unassigned) [compound 160], for which the “Selectivity (6 v 8) (fold)” value in test [1] (Table 1, number) is 1.8 fold; in test [1] (Table 1, range class), “II (II: >1-10)”.
On to `O=C(NO)c1cc(F)c2c(c1)CCN([C@@H]1CCC13CCCCC3)C2` (single isomer, unassigned) [compound 8], for which the figures for the IC50 in test [1] and in test [2] were 100 to 1000 nM and 10000 to 100000 nM, respectively. Besides, the “Selectivity (6 v 8) (fold)” value in test [1] (Table 1, number) is 198.5 fold; in test [1] (Table 1, range class), “IV (IV: >100-1000)”.
As to `O=C(NO)c1cc(F)c2c(c1)CCN(CC(F)(F)F)C2` [compound 7], the IC50 in test [1] is 1 to 100 nM; in test [2] it was 1000 to 10000 nM.
As to `O=C(NO)c1ccc2c(c1)CCN(CC13CC4CC(CC(C4)C1)C3)C2` [compound 26], the IC50 in test [1] was 1 to 100 nM; in test [2] it was 1000 to 10000 nM. For the same compound, the “Selectivity (6 v 8) (fold)” value in test [1] (Table 1, number) was 69.7 fold; in test [1] (Table 1, range class), “III (III: >10-100)”.
Regarding `O=C(NO)c1ccc(CN2CCCC3(CCCCC3)C2)c(F)c1` [compound 64], the IC50 in test [1] is 1 to 100 nM; in test [2], 1000 to 10000 nM.
As for `O=C(NO)c1cc(F)c2c(c1)CN(CC13CC4CC(CC(C4)O1)C3)C2` [compound 13], the half-inhibitory concentration (IC50) in test [1] fell in the range of 100 to 1000 nM; in test [2] it was 10000 to 100000 nM. The “Selectivity (6 v 8) (fold)” value in test [1] (Table 1, number) is 168.4 fold; in test [1] (Table 1, range class), “IV (IV: >100-1000)”.
In the case of `CC[C@@H]1CCCN1Cc1ccc(C(=O)NO)cc1F` (single isomer, unassigned) [compound 48], the “Selectivity (6 v 8) (fold)” value in test [1] (Table 1, number) was 15.6 fold; in test [1] (Table 1, range class), “III (III: >10-100)”.
As for `O=C(NO)c1cc(F)c2c(c1)CCN(CC1CCC1)C2` [compound 3], the IC50 was in the range of 1 to 100 nM in test [1] and 1000 to 10000 nM in test [2].
Consider `O=C(NO)c1ccc2c(c1)CN1CCCC[C@@H]1C2` (single isomer, unassigned) [compound 143], for which the “Selectivity (6 v 8) (fold)” value is on record as 88.8 fold in test [1] (Table 1, number) and “III (III: >10-100)” in test [1] (Table 1, range class).
In the case of `O=C(NO)c1ccc2c(c1)CCN1CCC[C@H]21` (single isomer, unassigned) [compound 148], the “Selectivity (6 v 8) (fold)” value in test [1] (Table 1, number) is reported as 1.9 fold; in test [1] (Table 1, range class), “II (II: >1-10)”.
For the compound `O=C(NO)c1cc(F)c2c(c1)CCN(CC13CC4CC(CC(C4)O1)C3)C2` [compound 14], the IC50 in test [1] lay within 1 to 100 nM; in test [2], 10000 to 100000 nM.
Consider `O=C(NO)c1ccc2c(c1)CCN1CCCC[C@@H]21` (single isomer, unassigned) [compound 89], for which the “Selectivity (6 v 8) (fold)” value was 3.1 fold in test [1] (Table 1, number) and “II (II: >1-10)” in test [1] (Table 1, range class).
Take `O=C(NO)c1cc(F)c2c(c1)CCN(C1CCC13CCCCC3)C2` (stereo not shown) [compound 15]: the IC50 lay within 1 to 100 nM in test [1] and 10000 to 100000 nM in test [2]. The “Selectivity (6 v 8) (fold)” value is listed as 209.2 fold in test [1] (Table 1, number) and “IV (IV: >100-1000)” in test [1] (Table 1, range class).
In the case of `O=C(NO)c1cc(F)c2c(c1)CCN(CC13C4C5C6C4C1C6C53)C2` (stereo not shown) [compound 25], the IC50 in test [1] lay in the range of 1 to 100 nM; in test [2], 10000 to 100000 nM.
Taken in the same sequence, the figures for `O=C(NO)c1cc(F)c2c(c1)CCN(C1CCC1)C2` [compound 4] were 1 to 100 nM and 10000 to 100000 nM.
As for `O=C(NO)c1cc(F)c2c(c1)C[C@@H]1CCC3(CCCCC3)CN1C2` (single isomer, unassigned) [compound 137], the “Selectivity (6 v 8) (fold)” value in test [1] (Table 1, number) is recorded as 126.4 fold; in test [1] (Table 1, range class), “IV (IV: >100-1000)”.
